Measured values as given in ChEMBL document CHEMBL4725447, “De-risking Drug Discovery of Intracellular Targeting Peptides: Screening Strategies to Eliminate False-Positive Hits” (ACS Med Chem Lett, 2020).
pEC50, pKd: −log10 of the molar value. Each block holds one compound with its values, some of them ahead of it. Activity calls are given as the source filed them. No cut-off for these calls is given here. Where a SMILES comes first, the peptide text is derived from it. Bridges are numbered along the chain shown (N, C = ends). [ ]: non-standard residue; d: D form. Phe(4-F) = N[C@@H](Cc1ccc(F)cc1)C(=O)O; d2Nal = N[C@H](Cc1ccc2ccccc2c1)C(=O)O; S5 = C=CCCC[C@](C)(N)C(=O)O

Legend:
HCT-116 [1] = assay: Cytotoxicity against human HCT116 cells assessed as effect on cell membrane preincubated overnight measured after 4 hrs post stimulation by LDH release assay relative to control; format: cell-based; conditions: hct-116, 4 h
[2] = tested on: GTPase KRas (Homo sapiens), P01116 [G12D]; assay: Binding affinity to KRAS G12D mutant (unknown origin) assessed as change in melting temperature by SYPRO orange dye based thermal shift assay
GTPase KRas [3] = target: T1, GTPase KRas (Homo sapiens, UniProt P01116); assay: Inhibition of KRAS in human U2OS cells assessed as inhibition in phosphorylation of ERK at 20 uM incubated for 15 mins by Western blot analysis; format: cell-based
Target sequence in this assay (P01116 whole entry, looked up): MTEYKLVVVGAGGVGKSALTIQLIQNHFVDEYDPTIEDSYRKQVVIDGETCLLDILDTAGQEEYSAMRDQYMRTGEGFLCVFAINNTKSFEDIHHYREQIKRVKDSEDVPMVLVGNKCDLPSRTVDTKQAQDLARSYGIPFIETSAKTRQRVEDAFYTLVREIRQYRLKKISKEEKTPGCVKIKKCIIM

U2OS = assay: Antiproliferation activity against human U2OS cells assessed as measuring ATP content at > 20 uM measured after 72 hrs by CellTiter-Glo analysis; format: functional, cell-based; conditions: dose microM >20, time 72.0 hrs
[4] = tested on: GTPase KRas (Homo sapiens), P01116 [G12V]; assay: Binding affinity to KRAS G12V mutant (unknown origin) by isothermal titration calorimetry
[5] = Aggregation property of peptides assessed as stable aggregates at 10 uM by dynamic light scattering analysis; format: physicochemical
[6] = tested on: GTPase KRas (Homo sapiens), P01116 [G12D]; assay: Binding affinity to KRAS G12D mutant (unknown origin) upto 1 uM by surface plasmon resonance analysis; conditions: dose microM <=1
[7] = target: E3 ubiquitin-protein ligase Mdm2 (Homo sapiens) (UniProt Q00987); assay: Binding affinity to MDM2 (unknown origin) upto 1 uM by surface plasmon resonance analysis; conditions: dose microM <=1
[8] = target: Eukaryotic translation initiation factor 4E (Homo sapiens) (UniProt P06730); assay: Binding affinity to eIF4E (unknown origin) upto 1 uM by surface plasmon resonance analysis
[9] = tested on: GTPase KRas (Homo sapiens), P01116 [G12D]; assay: Binding affinity to KRAS G12D mutant (unknown origin) by isothermal titration calorimetry
HCT-116 [10] = assay: Cytotoxicity against human HCT116 cells assessed as effect on cell membrane preincubated overnight measured after 4 hrs post stimulation by LDH release assay; format: cell-based
A549 = assay: Antiproliferation activity against human A549 cells assessed as measuring ATP content at > 20 uM measured after 72 hrs by CellTiter-Glo analysis; format: functional, cell-based; conditions: dose microM >20, time 72.0 hrs
[11] = target: E3 ubiquitin-protein ligase Mdm2 (Homo sapiens) (UniProt Q00987); assay: Binding affinity to MDM2 (unknown origin) in presence of FAM-labelled peptides at 1 uM by surface plasmon resonance analysis
[12] = target: Eukaryotic translation initiation factor 4E (Homo sapiens) (UniProt P06730); assay: Binding affinity to eIF4E (unknown origin) in presence of Fam-labelled peptides at 1 uM by surface plasmon resonance analysis
GTPase KRas [13] = target: T1, GTPase KRas; assay: Binding affinity to wild type KRAS (unknown origin) using FAM-labelled peptide as substrate in absence of Tween20 by fluorescence polarization assay
Target sequence in this assay (P01116 whole entry): as the sequence (P01116 whole entry, looked up) above

GTPase KRas [14] = target: GTPase KRas (Homo sapiens, UniProt P01116, G12D); assay: (§1) Binding affinity to KRAS G12D mutant (unknown origin) using FAM-labelled peptide as substrate in absence of Tween20 by fluorescence polarization assay
[15] = target: E3 ubiquitin-protein ligase Mdm2 (Homo sapiens) (UniProt Q00987); assay: Binding affinity to MDM2 (unknown origin) using FAM-labelled peptide as substrate in absence of Tween20 by fluorescence polarization assay
[16] = target: Eukaryotic translation initiation factor 4E (Homo sapiens) (UniProt P06730); assay: Binding affinity to eIF4E (unknown origin) using FAM-labelled peptide as substrate in absence of Tween20 by fluorescence polarization assay
[17] = Aggregation property of FAM-labelled peptides assessed as diameter of aggregate size at 10 uM by dynamic light scattering analysis; format: physicochemical
Homo sapiens = species on record: Homo sapiens; assay: Binding affinity to KRAS Q61H mutant (unknown origin) using FAM-labelled peptide as substrate in presence of Tween20 by fluorescence polarization assay
GTPase KRas [18] = target: T1, GTPase KRas; assay: Binding affinity to wild type KRAS (unknown origin) using FAM-labelled peptide as substrate in presence of Tween20 by fluorescence polarization assay
Target sequence in this assay (P01116 whole entry, looked up): as above

[19] = tested on: GTPase KRas (Homo sapiens), P01116 [G12D]; assay: Binding affinity to KRAS G12D mutant (unknown origin) in presence of FAM-labelled peptide at 1 uM by surface plasmon resonance analysis
[20] = tested on: GTPase KRas (Homo sapiens), P01116 [G12D]; assay: as §1
[21] = target: E3 ubiquitin-protein ligase Mdm2 (Homo sapiens) (UniProt Q00987); assay: Binding affinity to MDM2 (unknown origin) using FAM-labelled peptide as substrate in presence of Tween20 by fluorescence polarization assay
[22] = target: Eukaryotic translation initiation factor 4E (Homo sapiens) (UniProt P06730); assay: Binding affinity to eIF4E (unknown origin) using FAM-labelled peptide as substrate in presence of Tween20 by fluorescence polarization assay
[23] = target: Eukaryotic translation initiation factor 4E (Homo sapiens) (UniProt P06730); assay: Binding affinity to eIF4E (unknown origin) in presence of peptides at 300 nM by surface plasmon resonance analysis

Chain of E3 ubiquitin-protein ligase Mdm2 (Homo sapiens) (Q00987 whole entry, looked up): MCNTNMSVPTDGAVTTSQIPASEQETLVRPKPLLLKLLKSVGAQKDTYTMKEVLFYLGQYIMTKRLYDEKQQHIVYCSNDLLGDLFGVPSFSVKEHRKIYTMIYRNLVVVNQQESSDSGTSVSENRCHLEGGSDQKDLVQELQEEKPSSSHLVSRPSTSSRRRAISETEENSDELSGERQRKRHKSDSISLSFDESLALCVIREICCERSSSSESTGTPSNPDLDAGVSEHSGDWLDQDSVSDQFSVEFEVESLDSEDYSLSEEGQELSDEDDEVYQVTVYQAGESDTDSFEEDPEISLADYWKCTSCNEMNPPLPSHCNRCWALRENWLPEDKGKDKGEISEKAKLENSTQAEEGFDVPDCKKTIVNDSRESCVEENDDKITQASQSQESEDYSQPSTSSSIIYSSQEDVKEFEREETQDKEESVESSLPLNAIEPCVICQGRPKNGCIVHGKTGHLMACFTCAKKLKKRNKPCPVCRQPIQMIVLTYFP
Chain of Eukaryotic translation initiation factor 4E (Homo sapiens) (P06730 whole entry): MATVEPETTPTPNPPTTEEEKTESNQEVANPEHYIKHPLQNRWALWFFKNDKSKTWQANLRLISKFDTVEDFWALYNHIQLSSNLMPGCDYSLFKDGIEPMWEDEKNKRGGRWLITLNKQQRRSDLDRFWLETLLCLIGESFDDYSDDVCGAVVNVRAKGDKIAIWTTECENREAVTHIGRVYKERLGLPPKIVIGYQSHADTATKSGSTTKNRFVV
Chain of GTPase KRas (Homo sapiens), P01116 [G12D] (P01116 whole entry G12D, looked up): as the sequence (P01116 whole entry, looked up) above, with G12D counted along it
Chain of GTPase KRas (Homo sapiens, UniProt P01116, G12D) (P01116 whole entry G12D): as the sequence (P01116 whole entry, looked up) above, with G12D counted along it
Chain of GTPase KRas (Homo sapiens), P01116 [G12V] (P01116 whole entry G12V): as the sequence (P01116 whole entry, looked up) above, with G12V counted along it

Compound: CC(=O)N[C@@H](CC(C)C)C(=O)N[C@H](C(=O)N[C@@H](Cc1ccccc1)C(=O)N[C@]1(C)CCCCCC/C=C/CCC[C@@](C)(C(=O)N[C@@H](CO)C(=O)N[C@@H](C)C(=O)N[C@@H](C)C(N)=O)NC(=O)[C@H](CC2CCC2)NC(=O)[C@H](CC(C)C)NC(=O)[C@H](CCC(N)=O)NC(=O)[C@H](Cc2c[nH]c3ccccc23)NC(=O)[C@H](Cc2ccc(O)cc2)NC(=O)[C@H](CCC(=O)O)NC1=O)[C@@H](C)O
Activity (HCT-116 [1]): < 10%

Compound: C[C@H]1NC(=O)[C@H](CCCNC(=N)N)NC(=O)[C@H](Cc2c[nH]c3ccccc23)NC(=O)[C@H](CCCNC(=N)N)NC(=O)[C@H](Cc2ccc(F)cc2)NC(=O)[C@H](CCCNC(=N)N)NC(=O)[C@@H](Cc2ccc3ccccc3c2)NC(=O)[C@H](CCCNC(=N)N)NC(=O)[C@H](CCCNC(=N)N)NC(=O)[C@H](CCC(N)=O)NC1=O (cyclo(RR[d2Nal]R[Phe(4-F)]RWR[dA]Q))
Activity (HCT-116 [1]): < 10%

Compound: CCCC[C@H]1NC(=O)[C@H](Cc2ccc(F)cc2)NC(=O)[C@H](CCCNC(=N)N)NC(=O)[C@@H](Cc2ccc3ccccc3c2)NC(=O)[C@H](CCCNC(=N)N)NC(=O)[C@H](CCCNC(=N)N)NC(=O)[C@H](CCCNC(=N)N)NC(=O)[C@H](C)NC(=O)[C@H]([C@@H](C)O)NC(=O)[C@@H](Cc2c[nH]c3ccccc23)NC(=O)[C@@H](CCC(N)=O)NC1=O
Activity (GTPase KRas [3]): inactive | Activity (U2OS): Active | Activity [4]: inactive | Activity [5]: Not Active | Activity [6]: inactive | Activity [7]: inactive | Activity [8]: inactive | Activity [9]: inactive | pEC50 (HCT-116 [10]): 4.52 | Activity (A549): Active | Activity [11]: Active | Activity [12]: Active

Compound: CC(=O)NCCCC[C@H](N)C(=O)N[C@@H](CCCCN)C(=O)N[C@@H](CCCNC(=N)N)C(=O)N[C@@H](Cc1ccc(O)cc1)C(=O)N[C@@H](CO)C(=O)N[C@@H](CCCNC(=N)N)C(=O)N[C@@]1(C)CCC/C=C/CCC[C@@](C)(C(=O)N[C@@H](Cc2ccccc2)C(N)=O)NC(=O)[C@H](C(C)C)NC(=O)[C@H](C(C)C)NC(=O)[C@H](Cc2ccccc2)NC1=O (H-K(Ac)KRYSR[S5]FVV[S5]F-NH2; staple (E) 7-11)
pEC50 (HCT-116 [10]): 4.70

Compound: C=CCCC[C@](C)(NC(=O)[C@H](CC(N)=O)NC(=O)[C@@H](NC(=O)[C@H](CC(C)C)NC(=O)[C@](C)(CCCC=C)NC(=O)[C@@H](NC(=O)CNC(=O)[C@H](Cc1ccccc1)NC(=O)[C@H](Cc1ccccc1)NC(=O)[C@H](CCCNC(=N)N)NC(=O)[C@H](CCCNC(=N)N)NC(C)=O)[C@@H](C)CC)[C@@H](C)O)C(=O)N[C@@H](CC(C)C)C(=O)N[C@@H](CCCCN)C(=O)N[C@H](C(=O)N[C@@H](CCC(=O)O)C(=O)N[C@@H](CCC(=O)O)C(=O)NCC(=O)N[C@@H](CC(N)=O)C(N)=O)[C@@H](C)O
pEC50 (HCT-116 [10]): 5.10

Second part, led by results:

ΔTm [2]: -5.9 °C
Compound: CCCC[C@H]1NC(=O)[C@@H](Cc2ccc(F)cc2)NC(=O)[C@H](CCCNC(=N)N)NC(=O)[C@@H](Cc2ccc3ccccc3c2)NC(=O)[C@H](CCCNC(=N)N)NC(=O)[C@H](CCCNC(=N)N)NC(=O)[C@@H](CCCNC(=N)N)NC(=O)[C@@H](C)NC(=O)[C@H](C(C)(C)C)NC(=O)[C@H](Cc2c[nH]c3ccccc23)NC(=O)[C@H](CCC(N)=O)NC1=O

inhibition (GTPase KRas [3]): Active | pKd (GTPase KRas [13]): 6.37 | pKd (GTPase KRas [14]): 6.37 | Activity [15]: Active | Activity [16]: Active | Activity [5]: Not Active | Activity [17]: 350 nm | Activity [6]: inactive | Activity [7]: inactive | Activity [8]: inactive | Activity [9]: inactive | Activity (Homo sapiens): inactive | Activity (GTPase KRas [18]): inactive | Activity [19]: inactive | Activity [11]: Active | Activity [12]: Active
Compound: CC[C@H](C)[C@H](NC(=O)CNC(=O)[C@H](Cc1ccccc1)NC(=O)[C@H](Cc1ccccc1)NC(=O)[C@H](CCCNC(=N)N)NC(=O)[C@H](CCCNC(=N)N)NC(C)=O)C(=O)N[C@@]1(C)CCC/C=C/CCC[C@@](C)(C(=O)N[C@@H](CC(C)C)C(=O)N[C@@H](CCCCN)C(=O)N[C@H](C(=O)N[C@@H](CCC(=O)O)C(=O)N[C@@H](CCC(=O)O)C(=O)NCC(=O)N[C@@H](CC(N)=O)C(N)=O)[C@@H](C)O)NC(=O)[C@H](CC(N)=O)NC(=O)[C@H]([C@@H](C)O)NC(=O)[C@H](CC(C)C)NC1=O
Activity (U2OS): Active | pEC50 (HCT-116 [10]): 5.00 | Activity (A549): Active

Activity [20]: Active | Activity [15]: Active | Activity [16]: Active | Activity [5]: Not Active | Activity [17]: 1200 nm | Activity [21]: inactive | Activity [22]: inactive
Compound: CC[C@H](C)[C@H](NC(=O)[C@]1(C)CCC/C=C/CCC[C@](C)(NC(=O)CNC(=O)[C@H](Cc2ccccc2)NC(=O)[C@H](Cc2ccccc2)NC(=O)[C@H](CCCNC(=N)N)NC(=O)[C@H](CCCNC(=N)N)NC(C)=O)C(=O)N[C@@H](Cc2ccc(O)cc2)C(=O)N[C@@H](CC(C)C)C(=O)N[C@@H]([C@@H](C)O)C(=O)N1)C(=O)N[C@@H](CC(C)C)C(=O)N[C@@H](CCCCN)C(=O)N[C@H](C(=O)N[C@@H](CCC(=O)O)C(=O)N[C@@H](CCC(=O)O)C(=O)NCC(=O)N[C@@H](CC(N)=O)C(N)=O)[C@@H](C)O
Activity (HCT-116 [1]): < 10%

Activity [19]: inactive | Activity [23]: Active
Compound: CC(=O)N[C@@H](CCCCN)C(=O)N[C@@H](CCCCN)C(=O)N[C@@H](CCCNC(=N)N)C(=O)N[C@@H](Cc1ccc(O)cc1)C(=O)N[C@@H](CO)C(=O)N[C@@H](CCCNC(=N)N)C(=O)NC(C)(C)C(=O)N[C@@H](CCC(N)=O)C(=O)N[C@@H](CC(C)C)C(=O)N[C@@H](CC(C)C)C(=O)NC(C)(C)C(=O)N[C@@H](CC(C)C)C(N)=O
Activity (HCT-116 [1]): < 10%

Activity [19]: inactive
Compound: CC(=O)N[C@@H](CC(C)C)C(=O)N[C@H](C(=O)N[C@@H](Cc1ccccc1)C(=O)N[C@]1(C)CCCCCC/C=C/CCC[C@@](C)(C(=O)N[C@H](CO)C(=O)N[C@H](C)C(=O)N[C@H](C)C(N)=O)NC(=O)[C@@H](CC2CCC2)NC(=O)[C@H](CC(C)C)NC(=O)[C@H](CCC(N)=O)NC(=O)[C@H](Cc2c[nH]c3ccccc23)NC(=O)[C@H](Cc2ccc(O)cc2)NC(=O)[C@H](CCC(=O)O)NC1=O)[C@@H](C)O
